Data from patent US10745388B2, “Indazole compounds and uses thereof” (Incyte Corporation, priority 2018, dated 2020).

Target: HPK1 (Homo sapiens (Human), UniProt Q92918)
Assay: HPK1 Kinase Binding Assay
Settings: LanthaScreen tracer 222 binding, active HPK1, one hour incubation at 25° C.
Method: A stock solution of 1 mM test compound was prepared in DMSO. The compound plate was prepared by 3-fold and 11-point serial dilutions. 0.1 μL of the compound in DMSO was transferred from the compound plate to the white 384 well polystyrene plates. The assay buffer contained 50 mM HEPES, pH 7.5, 0.01% Tween-20, 5 mM MgCl2, 0.01% BSA, and 5 mM DTT. 5 μL of 4 nM active HPK1 (SignalChem M23-11G) prepared in the buffer was added to the plate. The enzyme concentration given was based on the given stock concentration reported by the vender. 5 μL of 18 nM tracer 222 (ThermoFisher PV6121) and 4 nM LanthaScreen Eu-Anti GST antibody (ThermoFisher PV5595) were added. After one hour incubation at 25° C., the plates were read on a PHERAstar FS plate reader (BMG Labtech). Ki values were determined.

HPK1, sequence (Q92918 1-346 limits assumed): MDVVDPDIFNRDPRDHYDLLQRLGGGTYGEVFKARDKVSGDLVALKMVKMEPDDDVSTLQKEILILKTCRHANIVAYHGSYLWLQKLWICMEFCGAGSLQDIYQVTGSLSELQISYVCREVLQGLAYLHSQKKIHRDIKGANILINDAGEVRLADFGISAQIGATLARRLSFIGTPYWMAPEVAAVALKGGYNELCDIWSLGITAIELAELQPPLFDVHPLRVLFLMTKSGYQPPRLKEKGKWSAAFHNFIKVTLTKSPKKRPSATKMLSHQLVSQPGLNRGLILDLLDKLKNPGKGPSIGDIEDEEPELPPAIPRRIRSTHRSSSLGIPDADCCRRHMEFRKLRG

Row | Ki [µM] | SMILES
1 | ≤ 0.1 | COc1cccc(F)c1-c1nccc(C(=O)Nc2ccc3nn(C)cc3c2N(C)CCO)n1 [1, Peak 1]
2 | ≤ 0.1 | COc1cccc(F)c1-c1nccc(C(=O)Nc2ccc3c(cnn3C)c2N(C)C2CC2)n1 [Example 3, N-(4-(Cyclopropyl(methyl)amino)-1-methyl-1H-indazol-5-yl)-2-(2-fluoro-6-methoxyphenyl)pyrimidine-4-carboxamide]
3 | ≤ 0.1 | COc1cccc(F)c1-c1nccc(C(=O)Nc2ccc3c(cnn3C)c2N(C)C)n1 [Example 4, N-(4-(Dimethylamino)-1-methyl-1H-indazol-5-yl)-2-(2-fluoro-6-methoxyphenyl)pyrimidine-4-carboxamide]
4 | ≤ 0.1 | COc1cccc(F)c1-c1nccc(C(=O)Nc2ccc3c(cnn3C)c2N(C)Cc2ccccc2)n1 [Example 5, N-(4-(Benzyl(methyl)amino)-1-methyl-1H-indazol-5-yl)-2-(2-fluoro-6-methoxyphenyl)pyrimidine-4-carboxamide]
5 | ≤ 0.1 | COc1cccc(F)c1-c1nccc(C(=O)Nc2ccc3c(cnn3C)c2N(C)Cc2cccnc2)n1 [Example 6, 2-(2-Fluoro-6-methoxyphenyl)-N-(1-methyl-4-(methyl(pyridin-3-ylmethyl)amino)-1H-indazol-5-yl)pyrimidine-4-carboxamide]
6 | ≤ 0.1 | COc1cccc(F)c1-c1nccc(C(=O)Nc2ccc3c(cnn3C)c2N(C)C2CCOCC2)n1 [Example 7]
7 | ≤ 0.1 | COc1cccc(F)c1-c1nccc(C(=O)Nc2ccc3c(cnn3C)c2N(C)CC(C)(C)O)n1 [Example 8, 2-(2-Fluoro-6-methoxyphenyl)-N-(4-((2-hydroxy-2-methylpropyl)(methyl)amino)-1-methyl-1H-indazol-5-yl)pyrimidine-4-carboxamide]
8 | ≤ 0.1 | COc1cccc(F)c1-c1nccc(C(=O)Nc2ccc3c(cnn3C)c2N(C)CC2CCCO2)n1 (stereo not drawn) [Example 9, 2-(2-Fluoro-6-methoxyphenyl)-N-(1-methyl-4-(methyl((tetrahydrofuran-2-yl)methyl)amino)-1H-indazol-5-yl)pyrimidine-4-carboxamide]
9 | 0.5 to 5 | COc1cccc(F)c1-c1nccc(C(=O)Nc2ccc3c(cnn3C)c2N(C)CC2(O)COC2)n1 [Example 10, 2-(2-Fluoro-6-methoxyphenyl)-N-(4-(((3-hydroxyoxetan-3-yl)methyl)(methyl)amino)-1-methyl-1H-indazol-5-yl)pyrimidine-4-carboxamide]
10 | ≤ 0.1 | COc1cccc(F)c1-c1nccc(C(=O)Nc2ccc3c(cnn3C)c2N(C)[C@H]2CCNC2)n1 [Example 11, (S)-2-(2-Fluoro-6-methoxyphenyl)-N-(1-methyl-4-(methyl(pyrrolidin-3-yl)amino)-1H-indazol-5-yl)pyrimidine-4-carboxamide]
11 | ≤ 0.1 | COc1cccc(F)c1-c1nccc(C(=O)Nc2ccc3c(cnn3C)c2N(C)[C@H]2CCN(C(C)=O)C2)n1 [Example 12, (S)—N-(4-((1-acetylpyrrolidin-3-yl)(methyl)amino)-1-methyl-1H-indazol-5-yl)-2-(2-fluoro-6-methoxyphenyl)pyrimidine-4-carboxamide]
12 | ≤ 0.1 | COc1cccc(F)c1-c1nccc(C(=O)Nc2ccc3c(cnn3C)c2N(C)[C@H]2CCN(S(C)(=O)=O)C2)n1 [Example 13, (S)-2-(2-Fluoro-6-methoxyphenyl)-N-(1-methyl-4-(methyl(1-(methylsulfonyl)pyrrolidin-3-yl)amino)-1H-indazol-5-yl)pyrimidine-4-carboxamide]
13 | ≤ 0.1 | COc1cccc(F)c1-c1nccc(C(=O)Nc2ccc3c(cnn3C)c2N(C)[C@H]2CCN(C(=O)N(C)C)C2)n1 [Example 14, (S)—N-(4-((1-(Dimethylcarbamoyl)pyrrolidin-3-yl)(methyl)amino)-1-methyl-1H-indazol-5-yl)-2-(2-fluoro-6-methoxyphenyl)pyrimidine-4-carboxamide]
14 | ≤ 0.1 | CNCc1ccccc1-c1c(NC(=O)c2ccnc(-c3c(F)cccc3OC)n2)ccc2c1cnn2C [Example 15, 2-(2-Fluoro-6-methoxyphenyl)-N-(1-methyl-4-(2-((methylamino)methyl)phenyl)-1H-indazol-5-yl)pyrimidine-4-carboxamide]

Row | SMILES | Ki [µM]
15 | COc1cccc(F)c1-c1nccc(C(=O)Nc2ccc3c(cnn3C)c2N(C)C2CCN(C)CC2)n1 [Example 2, 2-(2-Fluoro-6-methoxyphenyl)-N-(1-methyl-4-(methyl(1-methylpiperidin-4-yl)amino)-1H-indazol-5-yl)pyrimidine-4-carboxamide] | ≤ 0.1
